# Legend:
# ERRα = target: T1, ERRα (Homo sapiens, UniProt P11474); test: ERRE luciferase reporter assay in HEK293 cells transfected with pcDNA3.1 ERRα; format: cell-based; design: key to EC50 (ERRα): ***<1 μM; **1-5 μM; *>5 μM; i.a. (inactive); conditions: 24 hours treatment, luciferase activity
# T1 construct: expressed in transfected cells; host or cells: HEK293
# T1 sequence (P11474 1-423): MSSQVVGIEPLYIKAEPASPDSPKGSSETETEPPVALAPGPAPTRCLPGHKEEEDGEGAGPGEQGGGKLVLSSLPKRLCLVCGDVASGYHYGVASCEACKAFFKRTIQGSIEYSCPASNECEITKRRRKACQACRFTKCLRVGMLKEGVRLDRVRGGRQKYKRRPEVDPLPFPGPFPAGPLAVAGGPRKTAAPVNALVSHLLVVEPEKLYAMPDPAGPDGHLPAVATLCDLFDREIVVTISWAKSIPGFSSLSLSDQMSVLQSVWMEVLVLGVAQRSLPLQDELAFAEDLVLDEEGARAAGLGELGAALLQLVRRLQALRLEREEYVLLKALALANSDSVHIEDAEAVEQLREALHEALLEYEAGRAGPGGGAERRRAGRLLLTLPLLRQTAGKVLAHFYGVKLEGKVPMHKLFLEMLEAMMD
# Description: (§1) HEK293 cells were maintained in Dulbecco's modified Eagles medium (DMEM) supplemented with 10% fetal bovine serum at 37° C. under 5% CO2. […] Cells were transfected with ERRE reporter construct and pcDNA3.1 ERRα or ERRγ. Twenty-four-hours post-transfection, the cells were treated with vehicle or compound (various concentrations) for 24 hours (4 wells per dose). Luciferase activity was measured using the One-Glo Tox luciferase reporter assay system (Promega) and […] were calculated using GraphPad Prism software.
# ERRγ = target: T2, ERRγ (Homo sapiens, UniProt P62508); test: ERRE luciferase reporter assay in HEK293 cells transfected with pcDNA3.1 ERRγ; format: cell-based; design: key to EC50 (ERRγ): ***<1 μM; **1-5 μM; *>5 μM; i.a. (inactive); conditions: 24 hours treatment, luciferase activity
# T2 construct: expressed in transfected cells; host or cells: HEK293
# T2 sequence (P62508 1-458): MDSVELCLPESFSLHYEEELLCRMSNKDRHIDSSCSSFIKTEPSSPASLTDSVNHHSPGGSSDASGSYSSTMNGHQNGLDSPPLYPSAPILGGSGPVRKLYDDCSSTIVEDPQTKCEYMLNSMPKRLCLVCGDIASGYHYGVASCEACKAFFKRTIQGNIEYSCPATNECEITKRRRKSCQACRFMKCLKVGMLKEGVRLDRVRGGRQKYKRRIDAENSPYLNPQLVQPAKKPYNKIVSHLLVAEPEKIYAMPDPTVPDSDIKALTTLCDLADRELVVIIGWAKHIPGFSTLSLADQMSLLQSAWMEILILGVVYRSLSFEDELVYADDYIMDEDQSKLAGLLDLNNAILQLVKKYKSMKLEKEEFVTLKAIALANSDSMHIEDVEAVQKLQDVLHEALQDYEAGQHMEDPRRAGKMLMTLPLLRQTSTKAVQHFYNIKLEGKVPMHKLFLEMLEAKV
# Description: as §1
EC50 (ERRα) (ERRα),EC50 (ERRγ) (ERRγ),EC50 (ERRα) [nM],EC50 (ERRγ) [nM],Structure (SMILES)
i.a.,i.a.,–,–,"Cc1cc(C2CC(c3ccc(C(F)(F)F)cc3)=NN2)cc(C)c1O (stereo not drawn) [Entry 70, 2,6-dimethyl-4-(3-(4-(trifluoromethyl)phenyl)-4,5-dihydro-1H-pyrazol-5-yl)phenol]"
–,–,< 1000,1000 to 5000,"Oc1ccc(C2CC(c3ccc(Br)cc3)=NN2)cc1 (stereo not drawn) [Entry 80, 4-(3-(4-bromophenyl)-4,5-dihydro-1H-pyrazol-5-yl)phenol]"
i.a.,i.a.,–,–,"Oc1cccc(C2CC(c3cc(C(F)(F)F)cc(C(F)(F)F)c3)=NN2)c1 (stereo not drawn) [Entry 5, 3-(3-(3,5-bis(trifluoromethyl)phenyl)-4,5-dihydro-1H-pyrazol-5-yl)phenol]"
–,–,1000 to 5000,1000 to 5000,"Oc1cccc(C2=NNC(c3ccc(Br)cc3)C2)c1 (stereo not drawn) [Entry 108, 3-(5-(4-bromophenyl)-4,5-dihydro-1H-pyrazol-3-yl)phenol]"
–,–,< 1000,< 1000,"Oc1ccccc1C1=NNC(c2ccc(Cl)cc2)C1 (stereo not drawn) [Entry 66, 2-(5-(4-chlorophenyl)-4,5-dihydro-1H-pyrazol-3-yl)phenol]"
i.a.,i.a.,–,–,"Clc1ccc(C2=NNC(c3ccc(Br)cc3)C2)cc1 (stereo not drawn) [Entry 112, 5-(4-bromophenyl)-3-(4-chlorophenyl)-4,5-dihydro-1H-pyrazole]"
i.a.,i.a.,–,–,"Cc1ccc(C2=NNC(c3ccccc3O)C2)cc1 (stereo not drawn) [Entry 28, 2-(3-(p-tolyl)-4,5-dihydro-1H-pyrazol-5-yl)phenol]"
i.a.,i.a.,–,–,"Oc1c(Br)cc(Br)cc1C1CC(c2cc(Br)cc(Br)c2)=NN1 (stereo not drawn) [Entry 43, 2,4-Dibromo-6-(3-(3,5-dibromophenyl)-4,5-dihydro-1H-pyrazol-5-yl)phenol]"
i.a.,i.a.,–,–,"FC(F)(F)c1ccc(C2=NNC(c3ccc(Br)cc3)C2)cc1 (stereo not drawn) [Entry 114, 5-(4-bromophenyl)-3-(4-(trifluoromethyl)phenyl)-4,5-dihydro-1H-pyrazole]"
–,–,1000 to 5000,> 5000,"Oc1ccccc1C1CC(c2ccc(F)cc2)=NN1 (stereo not drawn) [Entry 46, 2-(3-(4-Fluorophenyl)-4,5-dihydro-1H-pyrazol-5-yl)phenol]"
i.a.,i.a.,–,–,"COc1ccc(C2=NNC(c3cc(Br)cc(Br)c3O)C2)cc1 (stereo not drawn) [Entry 117, 2,4-dibromo-6-(3-(4-methoxyphenyl)-4,5-dihydro-1H-pyrazol-5-yl)phenol]"
–,–,< 1000,< 1000,"Cc1ccc(O)c(C2CC(c3ccccc3)=NN2)c1 (stereo not drawn) [Entry 39, 4-Methyl-2-(3-phenyl-4,5-dihydro-1H-pyrazol-5-yl)phenol]"
i.a.,i.a.,–,–,"Oc1cc(Br)ccc1C1CC(c2ccc(C(F)(F)F)cc2)=NN1 (stereo not drawn) [Entry 119, 5-bromo-2-(3-(4-(trifluoromethyl)phenyl)-4,5-dihydro-1H-pyrazol-5-yl)phenol]"
–,–,< 1000,< 1000,"Oc1ccccc1C1CC(c2ccc(OC(F)(F)F)cc2)=NN1 (stereo not drawn) [Entry 41, 2-(3-(4-(Trifluoromethoxy)phenyl)-4,5-dihydro-1H-pyrazol-5-yl)phenol]"
–,–,> 5000,1000 to 5000,"Oc1ccccc1C1CC(c2ccc(Cl)cc2)=NN1 (stereo not drawn) [Entry 47, 2-(3-(4-Chlorophenyl)-4,5-dihydro-1H-pyrazol-5-yl)phenol]"
–,–,> 5000,> 5000,"Brc1cccc(C2=NNC(c3ccc4ccccc4c3)C2)c1 (stereo not drawn) [Entry 86, 3-(3-bromophenyl)-5-(naphthalen-2-yl)-4,5-dihydro-1H-pyrazole]"
–,i.a.,1000 to 5000,–,"COc1cccc(C2=NNC(c3ccccc3O)C2)c1 (stereo not drawn) [Entry 62, 2-(3-(3-methoxyphenyl)-4,5-dihydro-1H-pyrazol-5-yl)phenol]"
–,–,> 5000,> 5000,"Oc1ccccc1C1=NNC(c2ccccc2O)C1 (stereo not drawn) [Entry 30, 2,2′-(4,5-Dihydro-1H-pyrazole-3,5-diyl)diphenol]"

# Source: patent publication US20260257998A1, “ERR MODULATORS” (University of Health Sciences and Pharmacy in St. Louis, priority 2023, published 2026)
